The subject of assay [1] is C57BL/6 mouse melanocytes (Mel-Ab cells). The assay can be described thus: Melanin synthesis inhibition using mouse melanocytes (Dooley's method). In kind it is cell-based. Conditions: 72 h, 3 days. On the procedure:
Mouse melanocytes were used to examine the melanin synthesis inhibitory effect of the ginseng flower extract prepared in Example 1, the ginseng seed oil prepared in Example 2 and the ginseng seed residue extract prepared in Example 3.
First, C57BL/6 mouse melanocytes (Mel-Ab cells; Dooley, T. P. et al., Skin Pharmacol., 7, pp. 188-200) were cultured in Dulbecco's modified Eagle's medium (DMEM) containing 10% fetal bovine serum, 100 nM 2-O-tetradecanoylphorbol-13-acetate and 1 nM cholera toxin under the condition of 37° C. and 5% CO2 . The cultured Mel-Ab cells were detached with 0.25% trypsin-EDTA and cultured in a 24-well culture plate at a concentration of 10^5 cells/well. Then, from day 2 of culture, each of 10 ppm, 50 ppm and 100 ppm of the ginseng flower extract (Example 1), the ginseng seed oil (Example 2) and the ginseng seed residue extract (Example 3) was continuously added thereto and cultured for 3 days. The positive control group was treated with arbutin (Sigma Co.). Then, the culture media were removed, and the cells were washed with PBS and lysed with 1 N sodium hydroxide. The lysed cells were measured for absorbance at 400 nm, and then the inhibition of melanin production was calculated according to Equation 2. […] Melanin synthesis inhibition (%)=100−[(Absorbance of each test material/Absorbance of control)×100] […]

The test system of assay [2] is UVB-darkened human skin (upper arm). Kind of assay: Whitening on human skin after UVB-induced darkening (colorimeter). The assay is classed as in vivo. Conditions: applied on UVB-irradiated upper arm for 10 weeks; vehicle 0.51 ± 0.13. Here is the method: In order to examine the whitening effect of the ginseng flower extract prepared in Example 1, the ginseng seed oil prepared in Example 2 and the ginseng seed residue extract prepared in Example 3 on human skin, the following test was carried out.
First, for 12 healthy men, a 1.5-cm perforated opaque tape was attached to the upper arm portion of the subjects, and then the attached portion was irradiated with UVB at a dose of about 1.5-2 times the minimal erythemal dose of each subject to induce skin darkening.
The color of the skin was measured with the colorimeter CR2002 (Minolta, Japan) at 1-week intervals.
Then, the difference in skin color (ΔL*) between the time point of initiation of application and the time point of completion of application of each test material was calculated according to Equation 3, and the calculation results are shown in Table 8. The whitening effect is evaluated by measuring the ΔL* value between the sample-applied portion and the control portion. […] L*=L* value at the time of completion of application−L* value at the time of initiation of application [Equation 3]

Assay [3] concerns matrix metalloproteinase 1 (MMP-1) in human fibroblasts. Kind of assay: Inhibition of UVB-induced MMP-1 expression (ELISA). In kind it is cell-based. Conditions: UVB 40 mJ/cm^2, 10 μM, 2 days; non-UV = 100, UV alone 152. Here is the method: Human fibroblasts were cultured in a 12-well culture plate at a concentration of 10^5 cells/well, and then irradiated with 40 mJ/cm ^2 of UVB. Then, the culture medium was replaced with media containing 1 ppm, 10 ppm and 50 ppm of the ginseng flower extract prepared in Example 1. At 2 days of culture, the cells were harvested, and the amount of produced matrix metalloproteinase 1 (MMP-1) was quantified using an ELISA method. The measurement results were calculated relative to 100 for the non-UV-irradiated control group not treated with the test material. The positive control group was treated with retinoic acid (RA, Sigma Co.).

In assay [4] the test system is human HaCaT keratinocyte monolayer culture system. The assay can be described thus: Inhibition of reactive oxygen species production after UVB (DCFH-DA fluorescence). The assay is classed as cell-based. On the procedure: Antioxidative effect of the ginseng flower extract and the ginseng seed extract was investigated by comparing the capacity of removing reactive oxygen species (ROS) produced in cells in response to UV radiation. The positive control group for the ginseng flower extract was treated with vitamin C (Sigma Co.), which is commonly used to compare antioxidative effect. And, the control group was left untreated. A human HaCaT keratinocyte monolayer culture system (P. Boukamp, German Cancer Research Center, Heidelberg, Germany) was treated with UV (UVB 30 mJ/cm^2) and then with the extract prepared in Example 1 at 10 ppm, 50 ppm and 100 ppm. Then, 2′,7′-dichlorodihydrofluorescein diacetate (DCFH-DA; Molecular Probes, Inc.) was measured with a fluorescence plate reader. Production of ROS was calculated relative to the UV-untreated control group. The positive control group for the ginseng seed extract was treated with Trolox (Aldrich Co.), which is commonly used to compare antioxidative effect. And, the control group was left untreated. […] Then, DCFH-DA (Molecular Probes, Inc.) was measured with a fluorescence plate reader. Inhibition of ROS production was calculated relative to the UV-treated control group.

Assay [5] concerns type I procollagen in human fibroblasts. The assay can be described thus: Type I procollagen assay (ELISA). Conditions: 10 ng/mL, 3 days; positive control set to 100. The assay is classed as cell-based. On the procedure: Human fibroblasts were cultured in a 12-well culture plate at a concentration of 10 ^5 cells/well, and then the medium was replaced with media containing 1 ppm, 10 ppm and 50 ppm of the ginseng flower extract prepared in Example 1 or with media containing 1 ppm and 10 ppm of the ginseng seed oil prepared in Example 2 or the ginseng seed residue extract prepared in Example 3, as shown in Table 4. At 3 days of culture, the cells were harvested, and the amount of the produced type I procollagen was quantified using an ELISA method. The measurement results were calculated relative to 0 for the control group containing neither the ginseng flower extract nor the ginseng seed extract and 100 for the positive control group (human transforming growth factor-β1 (TGF-β1, Roche Co.)).
A general note: An ELISA detects its analyte on a solid surface through an enzyme-linked reagent.

A further assay concerns Human normal fibroblasts. The assay can be described thus: Inhibition of oxidative damage of DNA by single cell gel electrophoresis (comet assay), H2O2 challenge. In kind it is cell-based. Conditions: 10 ppm. On the procedure:
Human normal fibroblasts were cultured for 24 hours and treated with varying concentrations of the ginseng flower extract prepared in Example 1, the ginseng seed oil prepared in Example 2, the ginseng seed residue extract prepared in Example 3 and vitamin E. After 12 hours, the cells were treated with the positive control H2O2 (final concentration: 10^−3 M), stained by electrophoresis, and then observed with a fluorescence microscope. The image analyzer Komet 3.1 (Kinetic Imaging, England) was used to analyze the tail length (μm) resulting from the digestion of DNA in each of 25 cells.

For the compound `OC[C@H]1O[C@@H](Oc2ccc(O)cc2)[C@H](O)[C@@H](O)[C@@H]1O` [Arbutin, arbutin], the inhibition (usually the drop in the measured response relative to a control, in per cent) at 100 ppm in assay [1] was 51%.
As for `Oc1ccc(O)cc1` [Hydroquinone, hydroquinone], in assay [2], the “Skin color brightness (ΔL*)” value was 1.89 ± 0.15.
In the case of `CC1=C(/C=C/C(C)=C/C=C/C(C)=C/C(=O)O)C(C)(C)CCC1` [RA, retinoic acid], in assay [3], the “MMP-1 biosynthesis (%)” value came out at 45%.
In the case of `Cc1c(C)c2c(c(C)c1O)CCC(C)(C(=O)O)O2` (centres unmarked) [Trolox], the “Inhibition of ROS production (%)” value in assay [4] (UVB 30 mJ/cm^2, 0.1 mM, relative to UV-treated control) was 42.7%.
As for `O=C1O[C@H]([C@@H](O)CO)C(O)=C1O` [vitamin C], the “ROS production (%)” value in assay [4] (UVB 30 mJ/cm^2, 100 μM, relative to UV-untreated control = 100 (UVB alone 161)) was determined as 72%.
Take “TGF-β1: human transforming growth factor-β1 (Roche Co.), positive control”: in assay [5], the “Type I procollagen biosynthesis (%)” value amounted to 100%.
Consider vitamin E, for which the “Tail length (μm)” value in the assay on Human normal fibroblasts (12 h before H2O2 10^-3 M, control 112.4) was 68.9 μm. The “Inhibition (%)” value in the assay on Human normal fibroblasts (inhibition of oxidative DNA damage (tail length) vs control) is 38.7%.

Source of the values: patent US8709511B2, “External preparation composition for skin comprising ginseng flower or ginseng seed extracts” (Amorepacific Corporation, priority 2008, dated 2014).
